Results as given in paper PMC10254045, “Elaboration of the Effective Multi-Target Therapeutic Platform for the Treatment of Alzheimer’s Disease Based on Novel Monoterpene-Derived Hydroxamic Acids” (International Journal of Molecular Sciences, 2023).

Legend:
[1] = tested on: 5xFAD transgenic mice brain; experiment: Histology of β-amyloid deposits in brain samples (Congo Red); type: in vivo; conditions: 21-day administration; cortex, midbrain and hippocampus zone; vs 5xFAD
Description: (§1) As part of the in vivo testing of the biological activity of the leader compound, a transgenic mouse model with Alzheimer’s disease 5xFAD at the age of 13 months was used. This line expresses two human genes: APP (amyloid peptide precursor protein gene) with three types of mutations (Swedish (K670N, M671L), Florida (I716V) and London (V717I)), as well as the presenilin 1 gene with mutations (M146L and L286V) characteristic of this disease. Clinically healthy wildtype single-litter mice C57Bl6/j (n = 8) were used as a control group. Transgenic 5xFAD mice were randomly divided into two groups: (1) animals receiving intraperitoneal injections of hydroxamic acid 35a at a dose of 15 mg/kg (10% DMSO + NaCl) for three weeks—the 5xFAD + 35a group (n = 8) and (2) mice receiving an equivalent volume of solvent—the group 5xFAD (n = 8). All animals were kept in standard vivarium conditions at a temperature of 22 ± 1 °C and a humidity of 55% indoors with a 12-h light–dark cycle. The animals had no restrictions in the consumption of water and food. […]
After cervical dislocation, the half of brain was dissected and fixed with Carnoy’s solution (ethanol–chloroform–glacial acetic acid, 6:3:1) for 17 h. […] The stained deposits were evaluated using a ZEISS LSM 880 laser scanning microscope (Carl Zeiss, Oberkochen, Germany) in the tile scan mode. […]

[2] = tested on: 5xFAD transgenic mice brain mitochondria; experiment: Mitochondrial oxygen consumption rate of brain p2 fraction (Seahorse); type: in vivo; conditions: p2 fraction of 5xFAD mice treated for three weeks, vs 5xFAD
Description: as §1, with “8).” for “8). All animals were kept in standard vivarium conditions at a temperature of 22 ± 1 °C and a humidity of 55% indoors with a 12-h light–dark cycle. The animals had no restrictions in the consumption of water and food.”
The analysis of the work of the complexes of the electron transport chain of mitochondria was carried out on the mitochondrial p2 fraction obtained from brain samples of animals of experimental groups. Mitochondrial respiration was determined by the rate of oxygen consumption by organelles using the Seahorse XFe96 cell metabolism analyzer (Seahorse Bioscience, North Billerica, MA, USA), in full compliance with the protocol described in [169].

[3] = DPPH radical scavenging activity; conditions: Trolox equivalent; compounds and Trolox 100 µM
Description: DPPH is a stable chromogen radical, which is widely used to assess the antioxidant activity of biological objects, in particular when searching for potential therapeutic agents used to maintain the redox balance in the body and treat pathologies associated with the action of free radicals. In turn, the oxygen radical absorbance capacity (ORAC) analysis is based on the removal by potential antioxidants of peroxyl radicals generated by AAPH (2,2’-axobis-2-methyl-propanimidamide, dihydrochloride), preventing the degradation of the fluorescein probe.
The measurement of the antiradical activity of synthesized hydroxamic acids was carried out using the method described in [150]. The studied compounds were introduced into the wells of a 96-well black tablet (the final concentration was 100 microns), after which a freshly prepared solution of 2,2-diphenyl-1-picrylhydrazyl (Sigma Aldrich, St. Louis, Missouri, USA) was added. After the incubation time had elapsed, the DPPH radical-scavenging activity was measured using a multifunctional Cytation™3 tablet analyzer (BioTek Instruments, Inc., Winooski, VT, USA) at λ = 517 nm by the difference in the reduction of the DPPH radical peak between control samples containing an equivalent volume of solvent and samples with the substances under study.

[4] = tested on: 5xFAD transgenic mice; experiment: Morris Water Maze test in 5xFAD transgenic mice; type: in vivo; conditions: 5xFAD mice; for Latency to platform: 15 mg/kg intraperitoneal
Description: As part of the in vivo testing of the biological activity of the leader compound, a transgenic mouse model with Alzheimer’s disease 5xFAD at the age of 13 months was used. This line expresses two human genes: APP (amyloid peptide precursor protein gene) with three types of mutations (Swedish (K670N, M671L), Florida (I716V) and London (V717I)), as well as the presenilin 1 gene with mutations (M146L and L286V) characteristic of this disease. Clinically healthy wildtype single-litter mice C57Bl6/j (n = 8) were used as a control group. Transgenic 5xFAD mice were randomly divided into two groups: (1) animals receiving intraperitoneal injections of hydroxamic acid 35a at a dose of 15 mg/kg (10% DMSO + NaCl) for three weeks—the 5xFAD + 35a group (n = 8) and (2) mice receiving an equivalent volume of solvent—the group 5xFAD (n = 8). All animals were kept in standard vivarium conditions at a temperature of 22 ± 1 °C and a humidity of 55% indoors with a 12-h light–dark cycle. The animals had no restrictions in the consumption of water and food. The study of the neurobehavioral profile was started on the 15th day of the experiment.
The Morris Water Maze test was performed for five consecutive days to assess the formation of spatial learning and memory dependent on the hippocampus.
The installation consisted of a pool (Open Science, Moscow, Russia) with a diameter of 150 cm, filled to a depth of 40 cm with water (22 ± 1 °C). The lighting conditions were as follows: the dark side of the pool—50 lux; the light side—75 lux. […]
Testing was carried out according to a standard protocol, where for the first four days mice were placed in a pool with a platform hidden under water (1.5 cm below the water surface) in one of the quadrants of the pool. […] To do this, the animals were placed in the pool for 90 s and a number of indicators of the neurobehavioral profile were recorded.
All experimental attempts in the Morris water maze were recorded on a camera capturing video images from above the pool, which were processed using EthoVision software.

melting point: 179.9 °C
SMILES: C=C(C)[C@@H]1CC=C(CNC(=O)/C=C/c2ccc(C(=O)NO)cc2)CC1 [Compound 35a, (S,E)-N-hydroxy-4-(3-oxo-3-(((4-(prop-1-en-2-yl)cyclohex-1-en-1-yl)methyl)amino)prop-1-en-1-yl)benzamide]
number of β-amyloid aggregates in the brain [1]: decreased significantly
activity of complex IV (oxygen consumption rate), increase ([2]; p < 0.0001): 177.57%
activity of complex II (oxygen consumption rate), increase ([2]; p = 0.0025): 57.30%
DPPH value (TE) [3]: 0.88 TE
Latency to platform ([4]; first day of training): 55.70 ± 2.10 s
Latency to platform ([4]; fourth day of training, p = 0.039 vs day 1): 40.93 ± 5.47 s
number of entrances to the target quadrant, Probe trial ([4]; 15 mg/kg, fifth day, p = 0.203 vs C57Bl6/j): same number of entrances to the target quadrant of the maze was found with the control group
